According to patent publication US6737383B1, “Herbicidal oxadiazolidines” (priority 1999, dated 2004):

Experiments:
[1] = tested on: large crabgrass; test: Test D large crabgrass; type: in vivo, Digitaria sanguinalis; conditions: Preemergence, 0 to 100 scale
Excerpt: (§1) Seeds, tubers, or plant parts of Alexandergrass (Brachiaria plantaginea), bermuda-grass (Cynodon dactylon), common pursiane (Portulaca oleracea), common ragweed (Ambrosia elatior), common groundsel (Senecio vulgaris), dallisgrass (Paspalum dilatatum), goosegrass (Eleusine indica), guineagrass (Panicum maximum), itchgrass (Rottboellia exaltata), Johnson grass (Sorghum halepense), large crabgrass (Digitaria sanguinalis), pitted morningglory (Ipomoea lacunosa), purple nutsedge (Cyperus rotundus), sandbur (Cenchrus echinatus), sourgrass (Trichachne insularis), Spanishneedles (Bidens bipinnata), surinam grass (Brachiaria decumbens) and tall mallow (Malva sylvestris) were planted into greenhouse pots of flats containing greenhouse planting medium. Plant species were grown in separate pots or individual compartments. Preemergence applications were made within one day of planting the seed or plant part.
(§2) Test chemicals were formulated in a non-phytotoxic solvent mixture which included a surfactant and applied preemergence to the surface of the pot containing seeds in a sandy loam soil. Untreated control pots and treated pots were placed in the greenhouse for growth and visually evaluated for injury 14 to 21 days after herbicide application. Plant response ratings, summarized in Table C, are based on a 0 to 100 scale where 0 is no injury and 100 is complete control. A dash (−) response means no test result.

[2] = tested on: common groundsel; test: Test D common groundsel; type: in vivo, Senecio vulgaris; conditions: Preemergence, 0 to 100 scale
How it was run: (§3)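 Scoring used a 0–100 visual injury scale, with 0 meaning no effect and 100 complete control, assessed 14–21 days after application alongside untreated pots. Preemergence treatments went onto sandy loam surfaces of separately potted seeds within a day of sowing.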

[3] = tested on: pitted morningglory; test: Test D pitted morningglory; type: in vivo, Ipomoea lacunosa; conditions: Preemergence, 0 to 100 scale
Excerpt: as §1
as §2, with “Plant response ratings, summarized in Table C, are based on a 0 to 100 scale where 0 is no injury and 100 is complete control.” left out

[4] = tested on: sandbur; test: Test D sandbur; type: in vivo, Cenchrus echinatus; conditions: Preemergence, 0 to 100 scale
Excerpt: as §1, §2

[5] = tested on: Alexandergrass; test: Test D Alexandergrass; type: in vivo, Brachiaria plantaginea; conditions: Preemergence, 0 to 100 scale
Excerpt: as §1, §2

[6] = tested on: Johnson grass; test: Test D Johnson grass; type: in vivo, Sorghum halepense; conditions: Preemergence, 0 to 100 scale
How it was run: as §3

[7] = tested on: purple nutsedge; test: Test D purple nutsedge; type: in vivo, Cyperus rotundus; conditions: Preemergence, 0 to 100 scale
Excerpt: as §1, §2

[8] = tested on: tall mallow; test: Test D tall mallow; type: in vivo, Malva sylvestris; conditions: Preemergence, 0 to 100 scale
Excerpt: as §1, §2

[9] = tested on: common pursiane; test: Test D common purslane; type: in vivo, Portulaca oleracea
How it was run: as §3

[10] = tested on: guineagrass; test: Test D guineagrass; type: in vivo, Panicum maximum; conditions: Preemergence, 0 to 100 scale
How it was run: as §3

[11] = Rate 16 g/ha, 0 no injury, 100 complete control
[12] = Rate 32 g/ha, 0 no injury, 100 complete control
[13] = Rate 64 g/ha, 0 no injury, 100 complete control
[14] = Rate 125 g/ha, 0 no injury, 100 complete control
[15] = Rate 64 g/ha, Preemergence; 0 to 100 scale, 0 no injury, 100 complete control

CCn1c(=O)on(C(=O)N(c2ccc(F)cc2)C(C)C)c1=O [Compound 107]
85: Plant response rating Large crabgrass [1, 11] | Plant response rating Johnsongrass [6, 12] | Plant response rating, Purple nutsedge ([7]; Rate 250 g/ha) | Plant response rating, Purple nutsedge ([7]; Rate 500 g/ha)
65: Sandbur plant response rating [4, 13] | Purple nutsedge plant response rating [7, 14] | Plant response rating, Guineagrass [10, 11]
20: Plant response rating Johnsongrass [6, 11] | Purple nutsedge plant response rating [7, 13]
40: Plant response rating, Com. groundsel [2, 11]
30: Plant response rating, P. morninglory [3, 13] | Plant response rating, P. morninglory [3, 14] | Plant response rating, Sandbur [4, 11] | Plant response rating, Sandbur [4, 12]
0: Plant response rating, P. morninglory [3, 11] | Plant response rating, P. morninglory [3, 12] | Plant response rating, Alexandergrass [5, 11] | Plant response rating, Purple nutsedge [7, 11] | Plant response rating, Purple nutsedge [7, 12] | Plant response rating, Tall Mallow [8, 11] | Plant response rating, Tall Mallow [8, 12] | Tall Mallow plant response rating [8, 13] | Plant response rating, C. purslane ([9]; Rate 16 g/ha; Preemergence; 0 to 100 scale, 0 no injury, 100 complete control) | Plant response rating, C. purslane ([9]; Rate 32 g/ha; Preemergence; 0 to 100 scale, 0 no injury, 100 complete control) | Plant response rating, C. purslane [9, 15] | Plant response rating, C. purslane ([9]; Rate 125 g/ha, Preemergence; 0 to 100 scale, 0 no injury, 100 complete control) | Plant response rating, C. purslane ([9]; Rate 250 g/ha; Preemergence; 0 to 100 scale) | Plant response rating, C. purslane ([9]; Rate 500 g/ha; Preemergence; 0 to 100 scale)
90: Plant response rating, Alexandergrass [5, 12] | Plant response rating Johnsongrass [6, 13] | Plant response rating Johnsongrass [6, 14] | Tall Mallow plant response rating [8, 14]
100: Plant response rating Large crabgrass [1, 13] | Plant response rating Large crabgrass [1, 14] | Plant response rating Large crabgrass ([1]; Rate 250 g/ha) | Plant response rating Large crabgrass ([1]; Rate 500 g/ha) | Plant response rating, Com. groundsel [2, 14] | Plant response rating, Com. groundsel ([2]; Rate 250 g/ha) | Plant response rating, Com. groundsel ([2]; Rate 500 g/ha) | Plant response rating, P. morninglory ([3]; Rate 500 g/ha) | Plant response rating, Sandbur ([4]; Rate 250 g/ha) | Plant response rating, Sandbur ([4]; Rate 500 g/ha) | Plant response rating, Alexandergrass [5, 13] | Plant response rating, Alexandergrass [5, 14] | Plant response rating, Alexandergrass ([5]; Rate 250 g/ha) | Plant response rating, Alexandergrass ([5]; Rate 500 g/ha) | Plant response rating Johnsongrass ([6]; Rate 500 g/ha) | Plant response rating, Tall Mallow ([8]; Rate 500 g/ha) | Plant response rating, C. purslane ([9]; Rate 500 g/ha, Preemergence; 0 to 100 scale) | Plant response rating, Guineagrass [10, 13] | Plant response rating, Guineagrass [10, 14] | Plant response rating, Guineagrass ([10]; Rate 250 g/ha) | Plant response rating, Guineagrass ([10]; Rate 500 g/ha)
98: Plant response rating Large crabgrass [1, 12] | Plant response rating, Com. groundsel [2, 13] | Sandbur plant response rating [4, 14] | Plant response rating Johnsongrass ([6]; Rate 250 g/ha) | Plant response rating, Tall Mallow ([8]; Rate 250 g/ha)
75: Plant response rating, Com. groundsel [2, 12] | Plant response rating, P. morninglory ([3]; Rate 250 g/ha) | Plant response rating, Guineagrass [10, 12]

C=C(C)Cn1c(=O)on(C(=O)N(c2ccc(F)cc2)C(C)C)c1=O [Compound 139]
65: Plant response rating, Guineagrass [10, 13]
20: Tall Mallow plant response rating [8, 13]
60: Plant response rating, Alexandergrass [5, 13]
0: Plant response rating, Com. groundsel [2, 13] | Purple nutsedge plant response rating [7, 13] | Plant response rating, C. purslane [9, 15]
40: Sandbur plant response rating [4, 13]
10: Plant response rating Johnsongrass [6, 13]
30: Plant response rating, P. morninglory [3, 13]
90: Plant response rating Large crabgrass [1, 13]
